Experimental data as given in US9796711B2, “Substituted pyrazolo[3,4-b]pyridin-6-carboxylic acids and method of use” (AbbVie S.àr.l., priority 2015, dated 2017).

Key:
ΔF508-CFTR [1] = biological target: T1, ΔF508-CFTR (Homo sapiens, UniProt P13569, DEL508-508); test: CFTR cell surface levels using HRP-tagged ΔF508-CFTR expressing CFBE cells, in the presence of a co-corrector; assay type: cell-based; settings: HRP-tagged ΔF508-CFTR expressing CFBE cells, in the presence of 3 μM co-corrector; for EC50: read-out: EC50
T1 construct: host or cells: CFBE41o-, doxycycline-inducible
T1 sequence (P13569 with tags, fused parts or gaps DEL508-508): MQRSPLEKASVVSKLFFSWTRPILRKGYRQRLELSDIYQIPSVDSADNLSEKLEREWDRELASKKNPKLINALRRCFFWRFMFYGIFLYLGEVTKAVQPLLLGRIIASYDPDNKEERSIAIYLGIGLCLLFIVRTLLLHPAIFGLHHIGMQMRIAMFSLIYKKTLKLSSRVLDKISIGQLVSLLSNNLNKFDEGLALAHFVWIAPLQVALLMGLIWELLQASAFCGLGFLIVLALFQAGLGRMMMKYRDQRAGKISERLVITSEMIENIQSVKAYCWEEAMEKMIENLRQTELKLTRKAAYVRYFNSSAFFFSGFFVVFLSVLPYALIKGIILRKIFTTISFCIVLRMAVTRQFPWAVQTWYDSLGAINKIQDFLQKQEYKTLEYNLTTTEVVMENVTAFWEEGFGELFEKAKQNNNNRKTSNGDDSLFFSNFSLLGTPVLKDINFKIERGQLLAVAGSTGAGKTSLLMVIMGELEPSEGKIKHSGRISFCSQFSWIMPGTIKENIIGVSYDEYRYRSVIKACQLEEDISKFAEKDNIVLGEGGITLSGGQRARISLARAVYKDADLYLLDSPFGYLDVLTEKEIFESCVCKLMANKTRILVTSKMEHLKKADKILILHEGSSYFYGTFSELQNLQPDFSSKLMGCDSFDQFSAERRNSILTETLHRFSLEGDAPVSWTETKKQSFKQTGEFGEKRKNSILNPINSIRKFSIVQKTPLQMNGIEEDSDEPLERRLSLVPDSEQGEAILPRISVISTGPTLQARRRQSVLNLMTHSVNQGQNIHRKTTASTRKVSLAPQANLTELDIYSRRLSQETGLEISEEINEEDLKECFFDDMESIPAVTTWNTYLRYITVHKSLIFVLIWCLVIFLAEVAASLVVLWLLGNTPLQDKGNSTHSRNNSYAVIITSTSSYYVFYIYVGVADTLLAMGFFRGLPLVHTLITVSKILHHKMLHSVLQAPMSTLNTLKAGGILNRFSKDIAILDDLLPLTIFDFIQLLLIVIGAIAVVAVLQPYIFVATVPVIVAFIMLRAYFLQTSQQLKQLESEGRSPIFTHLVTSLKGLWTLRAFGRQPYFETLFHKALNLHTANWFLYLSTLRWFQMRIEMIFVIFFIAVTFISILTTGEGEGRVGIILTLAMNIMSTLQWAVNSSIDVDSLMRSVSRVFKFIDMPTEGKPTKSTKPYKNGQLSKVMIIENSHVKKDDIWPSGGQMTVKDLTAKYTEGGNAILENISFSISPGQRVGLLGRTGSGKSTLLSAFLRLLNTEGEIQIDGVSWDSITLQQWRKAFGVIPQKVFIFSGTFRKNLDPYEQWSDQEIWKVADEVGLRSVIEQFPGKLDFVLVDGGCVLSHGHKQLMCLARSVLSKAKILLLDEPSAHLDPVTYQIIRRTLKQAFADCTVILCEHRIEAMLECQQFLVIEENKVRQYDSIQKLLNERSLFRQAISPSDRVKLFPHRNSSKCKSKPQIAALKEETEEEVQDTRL
In short: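 Cells were seeded with 0.5 μg/mL doxycycline and held 68 h at 37 °C. Test compounds plus 3 μM co-corrector (final 0.1% DMSO) were then added for 20 h at 33 °C. Washed cells received HRP substrate, and luminescence was normalized between DMSO and 3 μM co-corrector controls.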

ΔF508-CFTR [2] = biological target: T1, ΔF508-CFTR; test: CFTR cell surface levels using HRP-tagged ΔF508-CFTR expressing CFBE cells, intrinsic corrector capacity; assay type: cell-based; settings: HRP-tagged ΔF508-CFTR CFBE41o- cells, compounds alone (intrinsic corrector capacity), 20 hours at 33° C.; for % Activation: positive control 3 μM corrector; for EC50: read-out: EC50
In short: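 Here the cells express ΔF508-CFTR with horseradish peroxidase inserted in extracellular loop 4, so only rescued channel at the surface gives luminescent signal. Compounds act on their own, 20 h at the reduced temperature of 33 °C; values are percent activity relative to DMSO and a 3 μM corrector.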

SMILES	% Activation (ΔF508-CFTR [1]) [%]	EC50 (ΔF508-CFTR [1]) [nM]	% Activation (ΔF508-CFTR [2]) [%]	EC50 (ΔF508-CFTR [2]) [nM]
CC(C)c1nn(-c2cccc(N3CCOCC3)c2)c2nc(C(=O)O)cc(-c3ccc(N4CCC(C#N)CC4)cc3)c12 [compound 206, 4-[4-(4-cyanopiperidin-1-yl)phenyl]-1-[3-(morpholin-4-yl)phenyl]-3-(propan-2-yl)-1H-pyrazolo[3,4-b]pyridine-6-carboxylic acid]	661.63	246	466.87	323
CC(C)c1nn(-c2cccc(N(C)C)c2)c2nc(C(=O)O)cc(-c3ccc(N(C)C4CCOCC4)cc3)c12 [compound 207, 1-[3-(dimethylamino)phenyl]-4-{4-[methyl(oxan-4-yl)amino]phenyl}-3-(propan-2-yl)-1H-pyrazolo[3,4-b]pyridine-6-carboxylic acid]	674.35	380	384.15	581
CC(C)c1nn(-c2cccc(N3CCOCC3)c2)c2nc(C(=O)O)cc(-c3ccc(N(C)C4CCOCC4)cc3)c12 [compound 208, 4-{4-[methyl(oxan-4-yl)amino]phenyl}-1-[3-(morpholin-4-yl)phenyl]-3-(propan-2-yl)-1H-pyrazolo[3,4-b]pyridine-6-carboxylic acid]	673.2	647	413.75	603
COCCN(C)c1cc(C(=O)O)nc2c1c(C(C)C)nn2-c1cccc(C)c1 [compound 209, 4-[(2-methoxyethyl)(methyl)amino]-1-(3-methylphenyl)-3-(propan-2-yl)-1H-pyrazolo[3,4-b]pyridine-6-carboxylic acid]	411.9	787	165.6	1360
Cc1cccc(-n2nc(C(C)C)c3c(N4CCC(F)(F)CC4)cc(C(=O)O)nc32)c1 [compound 210, 4-(4,4-difluoropiperidin-1-yl)-1-(3-methylphenyl)-3-(propan-2-yl)-1H-pyrazolo[3,4-b]pyridine-6-carboxylic acid]	261	3340	66.65	1180
CC(C)c1nn(-c2cncc(N3CCOCC3)c2)c2nc(C(=O)O)cc(-c3ccc(N4CCOCC4)cc3)c12 [compound 211, 4-[4-(morpholin-4-yl)phenyl]-1-[5-(morpholin-4-yl)pyridin-3-yl]-3-(propan-2-yl)-1H-pyrazolo[3,4-b]pyridine-6-carboxylic acid]	289.75	1090	94.07	2170
COC1CN(c2cc(C(=O)O)nc3c2c(C(C)C)nn3-c2cccc(C)c2)C1 [compound 212, 4-(3-methoxyazetidin-1-yl)-1-(3-methylphenyl)-3-(propan-2-yl)-1H-pyrazolo[3,4-b]pyridine-6-carboxylic acid]	386.9	1490	139.7	2640
CO[C@@H]1CCC[C@@H](n2nc(C(C)C)c3c(-c4ccc(N5CCOCC5)cc4)cc(C(=O)O)nc32)C1 [compound 214, 1-[(1R,3R)-3-methoxycyclohexyl]-4-[4-(morpholin-4-yl)phenyl]-3-(propan-2-yl)-1H-pyrazolo[3,4-b]pyridine-6-carboxylic acid]	323	609	154	820
Cc1cccc(-n2nc(C(C)C)c3c(N4CCC(C(F)(F)F)C4)cc(C(=O)O)nc32)c1 (centres unmarked) [compound 215, 1-(3-methylphenyl)-3-(propan-2-yl)-4-[3-(trifluoromethyl)pyrrolidin-1-yl]-1H-pyrazolo[3,4-b]pyridine-6-carboxylic acid]	347.15	915	165.95	1030
Cc1cccc(-n2nc(C(C)C)c3c(N4CC5CN(C(=O)OC(C)(C)C)CC5C4)cc(C(=O)O)nc32)c1 (centres unmarked) [compound 216, 4-[5-(tert-butoxycarbonyl)hexahydropyrrolo[3,4-c]pyrrol-2(1H)-yl]-1-(3-methylphenyl)-3-(propan-2-yl)-1H-pyrazolo[3,4-b]pyridine-6-carboxylic acid]	431.7	1110	161	1010
Cc1nn(-c2ccccc2)c2nc(C(=O)O)cc(-c3ccc(N4CCC(N(C)C)C4)cc3)c12 (centres unmarked) [compound 217, 4-{4-[3-(dimethylamino)pyrrolidin-1-yl]phenyl}-3-methyl-1-phenyl-1H-pyrazolo[3,4-b]pyridine-6-carboxylic acid]	342.3	1470	129.7	1520
Cc1cccc(-n2nc(C(C)C)c3c(N4CCC(C#N)C4)cc(C(=O)O)nc32)c1 (centres unmarked) [compound 218, 4-(3-cyanopyrrolidin-1-yl)-1-(3-methylphenyl)-3-(propan-2-yl)-1H-pyrazolo[3,4-b]pyridine-6-carboxylic acid]	380.9	933	169.4	2310
N#CC1CCN(c2ccc(-c3cc(C(=O)O)nc4c3c(C3CCC3)nn4C3CCCCC3)cc2)CC1 [compound 219, 4-[4-(4-cyanopiperidin-1-yl)phenyl]-3-cyclobutyl-1-cyclohexyl-1H-pyrazolo[3,4-b]pyridine-6-carboxylic acid]	474.5	365	248.7	518
CC(C)c1nn(-c2cccc(N3CCCC3)c2)c2nc(C(=O)O)cc(-c3ccc(N4CCC(C#N)CC4)cc3)c12 [compound 221, 4-[4-(4-cyanopiperidin-1-yl)phenyl]-3-(propan-2-yl)-1-[3-(pyrrolidin-1-yl)phenyl]-1H-pyrazolo[3,4-b]pyridine-6-carboxylic acid]	645.97	283	429	315
CC(C)c1nn(C2CCCCC2)c2nc(C(=O)O)cc(-c3ccc(N4CCCC(F)C4)nc3)c12 (centres unmarked) [compound 223, 1-cyclohexyl-4-[6-(3-fluoropiperidin-1-yl)pyridin-3-yl]-3-(propan-2-yl)-1H-pyrazolo[3,4-b]pyridine-6-carboxylic acid]	484.45	687	246.95	714
COC1CCN(c2ccc(-c3cc(C(=O)O)nc4c3c(C(C)C)nn4C3CCCCC3)cn2)C1 (centres unmarked) [compound 224, 1-cyclohexyl-4-[6-(3-methoxypyrrolidin-1-yl)pyridin-3-yl]-3-(propan-2-yl)-1H-pyrazolo[3,4-b]pyridine-6-carboxylic acid]	396.65	896	189.6	1180
CC(C)c1nn(-c2cccc(N3CC(O)C3)c2)c2nc(C(=O)O)cc(-c3ccc(N4CCOCC4)cc3)c12 [compound 225, 1-[3-(3-hydroxyazetidin-1-yl)phenyl]-4-[4-(morpholin-4-yl)phenyl]-3-(propan-2-yl)-1H-pyrazolo[3,4-b]pyridine-6-carboxylic acid]	395.7	901	251.5	1980
